The values below come from PMC6421105 (Bioorganic & medicinal chemistry, 2019).

The subject of one data set is T. cruzi (amastigotes). Nature of the data set: T. cruzi amastigote assay. As to conditions: for IC50: Trypanosoma cruzi, Vero, 72 h, read-out: T. cruzi (amastigotes) ED50; for Antiparasitic activity against intracellular T. cruzi (in words): amastigotes. It counts as cell-based, Trypanosoma cruzi.
Another data set relates to intracellular T. cruzi. As to conditions: racemic mixture; cited from earlier work.
A further data set relates to Vero cells. It counts as cell-based. The following applies: for Cytotoxicity at 15 µM / Cytotoxicity at 20 µM: 72 h; for Cytotoxicity ED50: treatment for 72 h.
In data set [1] the test system is mitochondrial and glycosomal TcSQS (wild type). The following applies: membrane protein; cited from earlier work.
A further data set has as its system truncated TcSQS. As to conditions: soluble enzyme cloned and expressed in Escherichia coli; cited from earlier work.

For `N#C[Se]CC1Cc2ccc(Oc3ccccc3)cc2O1` (racemic) [(±)-8], the IC50 in the data set on T. cruzi (amastigotes) amounted to 0.0939 ± 0.025 µM. Also, the “ED50 against intracellular T. cruzi” value in the data set on intracellular T. cruzi is 0.083 µM.

In the case of `FC(F)(F)SCCOc1ccc(Oc2ccccc2)cc1` [Compound 9, (2-(4-Phenoxyphenoxy)ethyl)(trifluoromethyl)sulfane], the IC50 with T. cruzi (amastigotes) was > 10 µM.

Take `FC(F)(F)[Se]CCOc1cccc(Oc2ccccc2)c1` [Compound 12, (2-(3-Phenoxyphenoxy)ethyl)(trifluoromethyl)selane]: the IC50 with T. cruzi (amastigotes) was > 1 µM.

In the case of `N#CCCOc1ccc(Oc2ccccc2)cc1` [Compound 13, 4-Phenoxyphenoxyethyl cyanide], in the data set with T. cruzi (amastigotes), the IC50 was > 10 µM and the “Antiparasitic activity against intracellular T. cruzi (in words)” value (“Antiparasitic activity” for short) was “inactive”.

For `N#CCCCOc1ccc(Oc2ccccc2)cc1` [Compound 14, 3-(4-Phenoxyphenoxy)propyl cyanide], in the data set on T. cruzi (amastigotes), the IC50 was > 10 µM and the “Antiparasitic activity” value was “inactive”.

Turning to `COc1ccc(OCC[Se]C#N)cc1` [Compound 20, 4-Methoxyphenoxyethyl selenocyanate], the IC50 in the data set with T. cruzi (amastigotes) is > 10 µM. The “T. cruzi (amastigotes) inhibition at 6 µM” value with T. cruzi (amastigotes) (at 6 µM) was “no inhibition”. Further, in the data set with Vero cells, the “Cytotoxicity at 15 µM” value is reported as “^**cytotoxic at 20 µM, 15 µM” and the “Cytotoxicity at 20 µM” value is listed as “^**cytotoxic at 20 µM, 15 µM”.

On to `N#C[Se]CCOc1ccccc1` [Compound 21, Phenoxyethyl selenocyanate], for which, in the data set with T. cruzi (amastigotes), the IC50 is > 10 µM. In the data set with Vero cells, the “Cytotoxicity at 20 µM” value was “^**cytotoxic at 20 µM”.

For the molecule `N#C[Se]CCOc1ccc([N+](=O)[O-])cc1` [Compound 22, 4-Nitrophenoxyethyl selenocyanate], the IC50 with T. cruzi (amastigotes) stood at 3.87 ± 1.3 µM. For the same molecule, in the data set with Vero cells, the “Cytotoxicity at 15 µM” value is reported as “^**cytotoxic at 20 µM, 15 µM” and the “Cytotoxicity at 20 µM” value is “^**cytotoxic at 20 µM, 15 µM”.

Take `N#C[Se]CCOc1ccccc1Oc1ccccc1` [Compound 43, 2-Phenoxyphenoxyethyl selenocyanate]: in the data set with T. cruzi (amastigotes), the IC50 was > 10 µM and the “Antiparasitic activity” value is given as “free of anti-T. cruzi activity”.

Consider `N#CSCCOc1ccccc1Oc1ccccc1` [Compound 44, 2-Phenoxyphenoxyethyl thiocyanate], for which, in the data set on T. cruzi (amastigotes), the IC50 is > 10 µM and the “Antiparasitic activity” value is listed as “free of anti-T. cruzi activity”.

Regarding `N#CSCCOc1ccc(Oc2ccccc2)cc1` [WC-9, 4-Phenoxyphenoxyethyl Thiocyanate], the “Inhibition of TcSQS enzymatic activity (in words)” value in data set [1] is on record as “non-competitive nanomolar inhibitor”. Besides, the “Inhibition of truncated TcSQS (in words)” value with truncated TcSQS was “inactive”.

For `O=C(Cn1ccnc1[N+](=O)[O-])NCc1ccccc1` [benznidazole, reference compound], the IC50 with T. cruzi (amastigotes) is 2.48 ± 0.45 µM.

Regarding “(2-(3-Phenoxyphenoxy)ethyl)(trifluoromethyl)sulfane [Compound 10]”, in the data set with T. cruzi (amastigotes) (at 1.0 µM), the “T. cruzi (amastigotes) % inhibition at 1.0 µM” value came to 6.7%. Besides, the “Cytotoxicity ED50” value with Vero cells is reported as > 20 µM.

Turning to “(2-(4-Phenoxyphenoxy)ethyl)(trifluoromethyl)selane [Compound 11]”, the “Cytotoxicity ED50” value in the data set with Vero cells is on record as > 20 µM.
